# Assay results reported in patent US20160263221A1, “MULTI-RESPONSIVE TARGETING DRUG DELIVERY SYSTEMS FOR CONTROLLED-RELEASE PHARMACEUTICAL FORMULATION” (priority 2013, published 2016).
# System: HeLa tumor
# Test: therapeutic efficacy in HeLa tumor bearing SCID mice, volume of cancer as a function of time
# Assay type: in vivo
# Conditions: FIG. 6
# From the text: The inventors determine the therapeutic efficacy of the multi-responsive targeting nano-containers of the present invention using HeLa tumor bearing SCID mice and monitor the volume of cancer as a function of time.
smiles,measurement,value
"COc1cccc2c1C(=O)c1c(O)c3c(c(O)c1C2=O)C[C@@](O)(C(=O)CO)C[C@@H]3O[C@H]1C[C@H](N)[C@H](O)[C@H](C)O1 [Doxorubicin, doxorubicin]",volume of the cancer as a function of time,the volume of the cancer increases with time
